From patent US20170266186A1, “USE OF INHIBITORS OF BRUTON'S TYROSINE KINASE (BTK)” (Pharmacyclics LLC, priority 2011, published 2017)
Where two headings read alike, the source gives them in different places. Marks after values point to notes of the source that are not given here.

Key:
Mino cells [1] = assay: adhesion assay, chemokine-mediated, Mino; conditions: Homo sapiens, read-out: inhibition of adhesion to VCAM1 or fibronectin following CXCL12 or CXCL13 activations
Granta-519 = assay: growth inhibition by PCI-32765, Granta-519; assay type: cell-based; conditions: Homo sapiens; Granta-519, Mantle cell
LY10 = assay: growth inhibition by PCI-32765, LY10; assay type: cell-based; conditions: Homo sapiens; LY10, DLBCL, ABC
WSU-NHL = assay: growth inhibition by PCI-32765, WSU-NHL; assay type: cell-based; conditions: Homo sapiens, FL-transformed
Mino and Jekol cells = assay: chemokine and cytokine secretion of MCL cell lines after BCR activation or in stromal co-culture; assay type: cell-based, human; conditions: following BCR activation or in co-culture
Jeko-1 = assay: growth inhibition by PCI-32765, Jeko-1; assay type: cell-based; conditions: Homo sapiens; Jeko-1, Mantle cell
Jekol cells = assay: adhesion assay, chemokine-mediated, Jekol; conditions: Homo sapiens, read-out: inhibition of adhesion to VCAM1 or fibronectin following CXCL12 or CXCL13 activations
primary MCL cells [2] = assay: co-culture assay: pseudoemperipoliesis of primary MCL cells with M2 stromal cells; assay type: cell-based, human; conditions: 100 nM
LY19 = assay: growth inhibition by PCI-32765, LY19; assay type: cell-based; conditions: Homo sapiens; LY19, DLBCL, GCB (CARD11)
pBtk, pPLCy2 and pAkt = conditions: alone or in co-culture with M2 cells
[3] = test system: subjects with B-cell malignancies
Text: The dose-escalation portion of this open-label trial enrolled subjects with B-cell malignancies (histologies listed in Table 2, below) and is now completed.

Jekol and HBL1 cells = assay: adhesion assay, anti-IgM stimulated; conditions: Homo sapiens, HBL1, read-out: inhibition of anti-IgM stimulated adhesion onto fibronectin or VCAM1
[4] = parameters: species or system human; conditions: in vivo
Mino = assay: growth inhibition by PCI-32765, Mino; assay type: cell-based; conditions: Homo sapiens, Mantle cell
DOHH2 = assay: growth inhibition by PCI-32765, DOHH2; assay type: cell-based; conditions: Homo sapiens, DOHH-2; DOHH2, FL-transformed
[5] = test system: pBtk (Y223, Y551), pPLCy2; conditions: primary MCL and normal B cells
[6] = test system: relapsed/refractory subjects with MCL; assay: phase II study of PCI-32765 in relapsed/refractory MCL; conditions: for Discontinuation: Adverse event / Discontinuation: Disease Progression / Death on study: 560 mg/day
DHL-10 = assay: growth inhibition by PCI-32765, DHL-10; assay type: cell-based; conditions: Homo sapiens; DHL-10, DLBCL, GCB
LY3 = assay: growth inhibition by PCI-32765, LY3; assay type: cell-based; conditions: Homo sapiens; LY3, DLBCL, ABC (CARD11)
Mino cells [7] = assay: migration assay, CXCL13 stimulated; conditions: dose-dependently from 1 nM to 1 μM
primary MCL = assay: actin polymerization of primary MCL in co-culture; conditions: 100 nM (p<0.001)
WSU-DLCL2 = assay: growth inhibition by PCI-32765, WSU-DLCL2; assay type: cell-based; conditions: Homo sapiens, WSUDLCL2; WSU-DLCL2, FL-transformed
DHL-6 = assay: growth inhibition by PCI-32765, DHL-6; assay type: cell-based; conditions: Homo sapiens; DHL-6, DLBCL, GCB
Ramos = assay: growth inhibition by PCI-32765, Ramos; assay type: cell-based; conditions: Homo sapiens, Burkitt's
primary MCL cells [8] = assay: adhesion of primary MCL cells; conditions: Homo sapiens, read-out: inhibition of CXCL12 or CXCL13 activated adhesion to VCAM1 and BCR stimulated adhesion to fibronectin
[9] = test system: plasma chemokines and cytokines; assay: plasma chemokine and cytokine concentrations of ibrutinib treated MCL patients
[10] = test system: B cell lymphoma derived cell lines; assay: growth inhibition in a subset of B cell lymphoma derived cell lines; assay type: cell-based; conditions: Homo sapiens, read-out: GI50 values, range
[11] = test system: Btk, PLCy2, Erk, JNK and Akt phosphorylation; assay: Btk signaling in MCL cell lines after anti-IgM, CXCL12 and CXCL13 stimulation; conditions: following anti-IgM, CXCL12 and CXCL13 stimulations

C=CC(=O)N1CCC[C@@H](n2nc(-c3ccc(Oc4ccccc4)cc3)c3c(N)ncnc32)C1 [PCI-32765, (R)-1-(3-(4-amino-3-(4-phenoxyphenyl)-1H-pyrazolo[3,4-d]pyrimidin-1-yl)piperidin-1-yl)prop-2-en-1-one]
inhibition at 0.1 µM (Mino cells [1]): 50 to 70% | GI50 (Granta-519): > 10000 nM | GI50 (LY10): 100 nM | GI50 (WSU-NHL): 120 nM | production of human IL-10, MDC, MIP-1α, MIP-1β, TNFα, CCL17 and CCL21 (Mino and Jekol cells): dose dependently and potently suppressed | GI50 (Jeko-1): > 10000 nM | inhibition at 0.1 µM (Jekol cells): 20 to 30% | pseudoemperipoliesis of primary MCL (hCD19+ cells) (primary MCL cells [2]): inhibited | GI50 (LY19): > 10000 nM | pBtk, pPLCy2 and pAkt in Mino cells (pBtk, pPLCy2 and pAkt): dose-dependently inhibited | CR ([3]; DLBCL (7 patients)): 0 | ORR (ITT) ([3]; DLBCL (7 patients)): 29% | ORR (evaluable pts) ([3]; DLBCL (7 patients)): 29% | PD ([3]; DLBCL (7 patients)): 4 | PR ([3]; DLBCL (7 patients)): 2 | CR ([3]; FL (16 patients)): 3 | ORR (ITT) ([3]; FL (16 patients)): 38% | ORR (evaluable pts) ([3]; FL (16 patients)): 46% | PD ([3]; FL (16 patients)): 4 | PR ([3]; FL (16 patients)): 3 | CR ([3]; MCL (9 patients)): 3 | PD ([3]; MCL (9 patients)): 1 | PR ([3]; MCL (9 patients)): 4 | CR ([3]; MZL/MALT (4 patients)): 0 | ORR (ITT) ([3]; MZL/MALT (4 patients)): 25% | ORR (evaluable pts) ([3]; MZL/MALT (4 patients)): 33% | PD ([3]; MZL/MALT (4 patients)): 1 | PR ([3]; MZL/MALT (4 patients)): 1 | ORR (ITT) ([3]; Overall (56 patients)): 54% | PD ([3]; Overall (56 patients)): 10 | CR ([3]; WM (4 patients)): 0 | PR ([3]; WM (4 patients)): 3 | inhibition at 0.1 µM (Jekol and HBL1 cells): 50 to 70% | DLTs at the final dose level [4]: No DLTs were observed | dose limiting toxicities (DLTs) documented [4]: Two | GI50 (Mino): 150 nM | GI50 (DOHH2): 120 nM | concentrations inhibiting pBtk (Y223, Y551) and reducing pPLCy2 (Y759, Y1217) [5]: ≥ 10 nM | Discontinuation: Adverse event ([6]; Bortezomib-Exposed (N = 27)): 1 (4) # (%) | Discontinuation: Disease Progression ([6]; Bortezomib-Exposed (N = 27)): 6 (22) # (%) | Death on study ([6]; Bortezomib-Exposed (N = 27), pneumonia): 1 (4) # (%) | Death on study ([6]; Bortezomib-Naïve (N = 41)): 0 (0) # (%) | Discontinuation: Adverse event ([6]; Bortezomib-Naïve (N = 41)): 2 (5) # (%) | Discontinuation: Disease Progression ([6]; Bortezomib-Naïve (N = 41)): 7 (17) # (%) | Death on study ([6]; Total (N = 68)): 1 (2) # (%) | Discontinuation: Adverse event ([6]; Total (N = 68)): 3 (4) # (%) | Discontinuation: Disease Progression ([6]; Total (N = 68)): 13 (19) # (%) | myelosuppression ([6]; during the study): No significant myelosuppression | GI50 (DHL-10): 3700 nM | GI50 (LY3): > 10000 nM | CXCL13 stimulated migration of Mino cells (Mino cells [7]): significantly inhibited | actin polymerization of primary MCL in co-culture (primary MCL): suppressed | GI50 (WSU-DLCL2): 500 nM | GI50 (DHL-6): 180 nM | GI50 (Ramos): 5500 nM | inhibition at 0.1 µM (primary MCL cells [8]): 10 to 20% | reduction of plasma chemokines such as MDC, MIP-1β, and CXCL13 ([9]; after one week of treatment): 40-60% | reduction of IL-10 and TNF-α ([9]; by the end of the first cycle of treatment): 50% | reduction of chemokines MDC, MIP-1β, CXCL13 and CXCL17, on average ([9]; following one week of treatment): more than 50% | GI50 [10]: 100 to 5500 nM | phosphorylation of Btk and downstream PLCy2, Erk, JNK and Akt [11]: inhibited
